Measurements taken from patent publication US20090170867A1, “TRPV1 ANTAGONISTS INCLUDING SULFONAMIDE SUBSTITUENT AND USES THEREOF” (Shionogi & Co., Ltd., priority 2007, published 2009).
In brackets after ≈: the same amount, converted by molar mass. Read-outs that look alike come from different tables or passages of the source.

How the values were obtained:
Aqueous solubility = format: physicochemical; details: aqueous solution
human TRPV1 [1] = target: T1, human TRPV1 (Homo sapiens, UniProt Q8NER1); assay: pH-based assay, Protocol 2 (TRPV1/CHO cells, Fura-2 AM, FDSS-3000, pH 5.0-5.1); format: cell-based; details: H2SO4 agonist, mean ± SEM, number of trials in parentheses, read-out: TRPV1 IC50 Potency, Human pH CHO (hpH-CHO)
T1 construct: using primers designed surrounding the complete hTRPV1 open reading frame; expressed in transfected cells; host or cells: CHO-K1 cells stably transfected with pcDNA3.1(-)-hVR1 plasmid
T1 sequence (Q8NER1 whole entry): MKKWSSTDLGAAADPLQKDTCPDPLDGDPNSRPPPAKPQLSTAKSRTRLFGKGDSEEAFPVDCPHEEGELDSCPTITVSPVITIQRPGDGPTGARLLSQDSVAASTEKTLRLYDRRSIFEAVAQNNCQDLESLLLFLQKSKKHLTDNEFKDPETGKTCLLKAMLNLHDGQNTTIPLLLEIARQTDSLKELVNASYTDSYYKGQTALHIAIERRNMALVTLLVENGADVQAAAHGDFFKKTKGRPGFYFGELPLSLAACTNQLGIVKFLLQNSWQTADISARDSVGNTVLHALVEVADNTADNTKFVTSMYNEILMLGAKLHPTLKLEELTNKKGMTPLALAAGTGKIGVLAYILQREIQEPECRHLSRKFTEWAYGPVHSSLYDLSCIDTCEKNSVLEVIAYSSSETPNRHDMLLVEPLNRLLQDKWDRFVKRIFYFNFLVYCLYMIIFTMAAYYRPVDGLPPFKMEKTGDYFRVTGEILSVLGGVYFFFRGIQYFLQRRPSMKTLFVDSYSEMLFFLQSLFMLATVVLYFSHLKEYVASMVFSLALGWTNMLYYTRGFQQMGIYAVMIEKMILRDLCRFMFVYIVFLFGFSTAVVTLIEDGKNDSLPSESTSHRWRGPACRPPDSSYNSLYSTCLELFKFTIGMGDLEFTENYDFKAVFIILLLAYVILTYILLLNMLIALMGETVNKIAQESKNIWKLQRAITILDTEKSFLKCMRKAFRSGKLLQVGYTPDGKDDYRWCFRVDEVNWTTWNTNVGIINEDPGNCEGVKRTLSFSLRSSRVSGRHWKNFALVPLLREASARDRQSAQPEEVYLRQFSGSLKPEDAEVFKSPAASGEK
Description: For Protocol 2, a Chinese Hamster Ovary cell line (CHO) that has been engineered to constitutively express human recombinant TRPV1 was used (TRPV1/CHO cells). The TRPV1/CHO cell line was generated as described below.
The resulting PCR products were purified from agarose gels using Gel Band Purification Kit (GE Healthcare Bioscience) and were subcloned into pCR-Blunt vector (Invitrogen). The cloned cDNA was fully sequenced using a fluorescent dye-terminator reagent (BigDye Terminator ver3.1 Cycle Sequencing Kit, Applied Biosystems) and ABI Prism 3100 genetic analyzer (Applied Biosystems). The pCR-Blunt vector containing the hTRPV1 cDNA was subjected to restriction digestion with EcoRI. The restriction fragment was subcloned into expression vector pcDNA3.1 (−) (Invitrogen) and named pcDNA3.1 (−)-hVR1 plasmid. The sequence of the cDNA encoding TRPV1 is available at GenBank accession number AJ277028.
CHO-K1 cells were maintained in growth medium consisting of α-MEM, 10% FBS (Hyclone), and 100 IU/mL of penicillin-100 μg/mL of streptomycin mixed solution (Nacalai Tesque, Japan) at 37° C. in an environment of humidified 95% air and 5% CO2. The cells were transfected with the pcDNA3.1 (−)-hVR1 plasmid using FuGENE6 (Roche) according to the manufacturer's protocol. 24 hr after transfection, neomycin-resistant cells were selected using 1 mg/mL G418 (Nacalai Tesque). After 2 weeks, individual colonies were picked, expanded, and screened for the expression of hTRPV1 in the capsaicin-induced Ca^2+ influx assay (see below) with a FLIPR (Molecular Devices). A clone with the largest Ca^2+ response to capsaicin was selected and re-cloned by the same procedure. The cells expressing hTRPV1 were cultured in the growth medium supplemented with 1 mg/mL G418.
TRPV1/CHO cells were seeded in the 96-well clear-bottom black-wall plate (Nunc) at densities of 1-2×10^4 cells/well and grown in 100 μL of culture medium (alpha-MEM supplemented with 10% FBS, 20 mM HEPES, 1 mg/mL geneticin and 1% antibiotic-antimycotic mixed stock solution) for 1-2 days before the experiment.
Different agonist solutions with sulfuric acid concentrations of from 15 mM to 18 mM (see FIG. 1) were prepared by diluting 1M sulfuric acid with measuring buffer. The different sulfuric acid concentrations in the agonist solutions were selected such that a 1:4 dilution would result in a final sulfuric acid concentration of between 3.0 mM to 3.6 mM, respectively, as indicated in FIG. 1.
The cells were stimulated using 3.0 mM (well number B1-6), 3.1 mM (C1-6), 3.2 mM (D1-6), 3.3 mM (E1-6), 3.4 mM (F1-6), 3.5 mM (G1-6), or 3.6 mM (H1-6) H2SO4 or pH 7.2 measuring buffer without H2SO4 (A1-6) (FIG. 2).
(1) Culture medium was removed using an 8-channel-pipette (Rainin, USA) from the 96-well plate and the wells were refilled with 100 μL of loading buffer (20 mM HEPES, 115 mM NaCl, 5.4 mM KCl, 0.8 mM MgCl2, 1.8 mM CaCl2, 13.8 mM D-glucose, 2.5 mM probenecid, pH 7.4) containing 5 μM Fura-2 AM (Dojin, Japan).
(2) The 96-well plate was incubated at 37° C. for 45 min.
(3) The loading buffer was removed from each well. The cells were subsequently washed twice with 150 μL of measuring buffer (20 mM HEPES, 115 mM NaCl, 5.4 mM KCl, 0.8 mM MgCl2, 5.0 mM CaCl2, 13.8 mM D-glucose, 0.1% BSA, pH 7.4) (no probenecid). The wells were then refilled with 80 μL of measuring buffer.
(4) After an incubation at 4° C. for 15 min, the 96-well plate was transferred to FDSS-3000 (Hamamatsu Photonics, Japan).
(5) The Fura-2 fluorescent intensity was monitored at a wavelength of 340 nm and at 380 nm, respectively, at a rate of 0.5 Hz for a total of 240 seconds.

human TRPV1 [2] = target: T1, human TRPV1; assay: Capsaicin-based assay, Protocol 2 (TRPV1/CHO cells, Fluo-4, FLIPR); format: cell-based; details: capsaicin 100 nM final, mean ± SEM, number of trials in parentheses, read-out: TRPV1 IC50 Potency, Human Capsaicin CHO (hCAP-CHO)
Summary of the method: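 CHO cells stably transfected with human TRPV1 cDNA, kept under G418 selection, loaded with 3 μM Fluo-4 for 1 h. Calcium fluorescence followed on FLIPR after a 15 s baseline against capsaicin challenge; compounds at final 100 μM to 1.5625 μM, curves fitted over the full time course.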

[3] = pH 1.2, simulated gastric fluid, read-out: aqueous solubility at pH 1.2
[4] = pH 6.8, aqueous buffer, read-out: aqueous solubility at pH 6.8

| SMILES | solubility (Aqueous solubility; [3]) [µM] | solubility (Aqueous solubility; [4]) [µM] | IC50 (human TRPV1 [1]) [nM] | IC50 (human TRPV1 [2]) [nM] |
| --- | --- | --- | --- | --- |
| O=C(Nc1ccc(C(F)(F)F)cc1)N1CC=C(c2ncccc2Cl)CC1 [Compound 200] | < 0.1 | < 0.1 |  |  |
| O=C(Nc1ccc(OC(F)(F)F)cc1)N1CCC(F)(c2ncc([C@H](O)CO)cc2Cl)CC1 [Compound C1] | > 50 | 15.7 (≈ 7.5 µg/mL) | 11.3 ± 0.8 | 15.3 ± 6.9 |
| O=C(Nc1ccc(OC(F)(F)F)cc1)N1CC=C(c2ncc([C@H](O)CO)cc2Cl)CC1 [Compound E2] | > 50 | > 50 | 20.3 ± 1.7 | 107 ± 18.8 |
| N#CCc1cnc(C2=CCN(C(=O)Nc3ccc(C(F)(F)F)cc3)CC2)c(Cl)c1 [Compound E6, 4-(3-chloro-5-(cyanomethyl)pyridin-2-yl)-N-(4-(trifluoromethyl)phenyl)-5,6-dihydropyridine-1(2H)-carboxamide] | 27.2 (≈ 11.4 µg/mL) | 9 (≈ 3.79 µg/mL) |  | 265 |
| O=C(Nc1ccc(C(F)(F)F)c(F)c1)N1CCC(F)(c2ncc([C@H](O)CO)cc2Cl)CC1 [Compound F1] | > 50 | 22.6 (≈ 10.8 µg/mL) | 9 ± 2.3 | 18.6 ± 6.8 |
| CCOC(=O)c1cnc(C2=CCN(C(=O)Nc3ccc(C(F)(F)F)cc3)CC2)c(Cl)c1 [Compound F2] | 1 (≈ 0.454 µg/mL) | 3 (≈ 1.36 µg/mL) | 62.9 ± 8.8 | 108 ± 24.3 |
| COC(=O)Cc1cnc(C2=CCN(C(=O)Nc3ccc(C(F)(F)F)cc3)CC2)c(Cl)c1 [Compound F6] | > 50 | 9.2 (≈ 4.18 µg/mL) | 467 | 864 |
| CC(O)c1cnc(C2=CCN(C(=O)Nc3ccc(C(F)(F)F)cc3)CC2)c(Cl)c1 (centres unmarked) [Compound G2] | > 50 | 38.2 (≈ 16.3 µg/mL) | 84.8 ± 8.8 | 112 ± 22.3 |
| O=C(O)Cc1cnc(C2=CCN(C(=O)Nc3ccc(C(F)(F)F)cc3)CC2)c(Cl)c1 [Compound G6] | > 50 | > 50 |  | > 25000 |
| O=C(Nc1ccc(S(=O)(=O)C(F)(F)F)cc1)N1CCC(F)(c2ncc([C@H](O)CO)cc2Cl)CC1 [Compound H1] | > 50 | > 50 |  | 31.7 ± 8.9 |
| CN(C)Cc1cnc(C2=CCN(C(=O)Nc3ccc(C(F)(F)F)cc3)CC2)c(Cl)c1 [Compound H6] | > 50 | > 50 |  | 924 |
| O=C(Nc1ccc(C(F)(F)F)cc1)N1CC=C(c2ncc(CO)cc2Cl)CC1 [Compound J2] | > 50 | > 50 | 41.7 ± 4.4 | 129 ± 26 |
| O=C(Nc1ccc(C(F)(F)F)cc1)N1CCC(F)(c2ncc([C@H](O)CO)cc2Cl)CC1 [Compound N1, (S)-4-(3-chloro-5-(1,2-dihydroxyethyl)pyridin-2-yl)-4-fluoro-N-(4-(trifluoromethyl)phenyl)piperidine-1-carboxamide] | > 50 | 28 (≈ 12.9 µg/mL) | 6.3 ± 0.8 | 38.7 ± 5.3 |
| O=C(Nc1ccc(C(F)(F)F)cc1)N1CCC(F)(c2ncc([C@H](O)CO)cc2F)CC1 [Compound N6] | > 50 | > 50 |  |  |
| O=C(Nc1ccc(C(F)(F)F)c(F)c1)N1CC=C(c2ncc([C@H](O)CO)cc2Cl)CC1 [Compound S1, (S)-3-Chloro-5-(1,2-dihydroxy-ethyl)-3′,6′-dihydro-2′H-[2,4′]bipyridinyl-1′-carboxylic acid (3-fluoro-4-trifluoromethyl-phenyl)amide] | > 50 | > 50 | 16.3 ± 2 | 53.5 ± 16.3 |
| O=C(Nc1ccc(C(F)(F)F)c(Cl)c1)N1CCC(F)(c2ncc([C@@H](O)CO)cc2Cl)CC1 [Compound T3] |  |  | 12.9 | 23.8 ± 6.8 |
| O=C(Nc1ccc(C(F)(F)F)c(F)c1)N1CC=C(c2ncc([C@@H](O)CO)cc2Cl)CC1 [Compound W5] |  |  | 71.2 ± 10.5 | 423 ± 123 |

More lines, now with the values ahead:

| solubility (Aqueous solubility; [3]) [µM] | solubility (Aqueous solubility; [4]) [µM] | IC50 (human TRPV1 [1]) [nM] | IC50 (human TRPV1 [2]) [nM] | SMILES |
| --- | --- | --- | --- | --- |
|  |  | 22.4 ± 1.1 | 66.3 ± 5.7 | O=C(Nc1ccc(OC(F)(F)F)cc1)N1CC=C(c2ncc([C@H](O)CO)cc2F)CC1 [Compound V1] |
|  |  | 83.2 ± 7.6 | 234 ± 44.6 | O=C(Nc1nc2ccc(Cl)cc2s1)N1CC=C(c2ncc(CO)cc2Cl)CC1 [Compound V2] |
|  |  | 10.1 ± 1.4 | 45.5 ± 2.1 | Cc1cc(NC(=O)N2CCC(F)(c3ncc([C@@H](O)CO)cc3Cl)CC2)ccc1OC(F)(F)F [Compound V5] |
|  |  | 6.2 | 16 ± 1.6 | O=C(Nc1nc2ccc(F)cc2s1)N1CCN(c2ncc([C@H](O)CO)cc2Cl)CC1 [Compound V6, (S)-4-(3-chloro-5-(1,2-dihydroxyethyl)pyridin-2-yl)-N-(6-fluorobenzo[d]thiazol-2-yl)piperazine-1-carboxamide] |
|  |  | 9.3 ± 1.9 | 68.9 ± 18.4 | O=C(Nc1nc2ccc(Cl)cc2s1)N1CC=C(c2ncc([C@H](O)CO)cc2Cl)CC1 [Compound W1] |
|  |  | 241 ± 34.9 | 245 ± 34.4 | O=C(Nc1nc2ccc(F)cc2s1)N1CC=C(c2ncc(CO)cc2Cl)CC1 [Compound W2] |
|  |  | 22.4 | 35.6 ± 8.9 | O=C(Nc1nc2ccc(Cl)cc2s1)N1CCC(F)(c2ncc([C@H](O)CO)cc2F)CC1 [Compound W3] |
|  |  | 14.9 ± 2.2 | 32.9 ± 11.8 | O=C(Nc1ccc(Cl)c(C(F)(F)F)c1)N1CCN(c2ncc([C@H](O)CO)cc2Cl)CC1 [Compound W6, (S)—N-(4-chloro-3-(trifluoromethyl)phenyl)-4-(3-chloro-5-(1,2-dihydroxyethyl)pyridin-2-yl)piperazine-1-carboxamide] |
|  |  | 18.8 ± 1.6 | 74.4 ± 11.5 | CN(C)c1ccc(NC(=O)N2CC=C(c3ncc(CO)cc3Cl)CC2)cc1C(F)(F)F [Compound X1] |
|  |  | 81.1 ± 10.5 | 248 ± 25.1 | CC(C)(O)c1cnc(C2=CCN(C(=O)Nc3ccc(C(F)(F)F)cc3)CC2)c(Cl)c1 [Compound X2] |
|  |  | 59.9 ± 11.8 | 351 ± 69.8 | O=C(Nc1ccc(OCC2CC2)c(C(F)(F)F)c1)N1CC=C(c2ncc(CO)cc2Cl)CC1 [Compound Y2] |
| > 50 | 17.4 (≈ 8.06 µg/mL) |  | 43.9 ± 10 | O=C(Nc1ccc(C(F)(F)F)c(F)c1)N1CCC(F)(c2ncc([C@H](O)CO)cc2F)CC1 [Compound Y3] |
|  |  | 108 ± 7.7 | 196 ± 37.7 | O=C(Nc1ccc(C(F)(F)F)cn1)N1CCC(F)(c2ncc([C@@H](O)CO)cc2F)CC1 [Compound Y5] |
|  |  | 248 ± 45.3 | 401 ± 122 | O=C(Nc1ccc(C(F)(F)F)cn1)N1CC=C(c2ncc(CO)cc2Cl)CC1 [Compound Z2] |
|  |  | 16.5 ± 3.3 | 62.8 ± 11.4 | O=C(Nc1nc2ccc(Cl)cc2s1)N1CCC(F)(c2ncc([C@H](O)CO)cc2Cl)CC1 [Compound Z4] |
|  |  | 16.4 ± 1.9 | 35.5 ± 3.9 | O=C(Nc1nc2ccc(Cl)cc2s1)N1CCC(F)(c2ncc([C@@H](O)CO)cc2F)CC1 [Compound Z5] |
